Consider three compounds from patent EP2886536A1 (priority 2013, dated 2015).

Counter-ions that a name gives are not always drawn. Some results are limits rather than exact numbers.

The subject of one series is Jurkat. As to the kind of experiment: cells. The format is cell-based. The settings on record: Homo sapiens, 96 h, read-out: IC50 values.
A further series has as its system NCl-H460. As to the kind of experiment: cells. Type of series: cell-based. The note with it: 96 h, read-out: IC50 values.
The next series has as its system SK-ES1. As to the kind of experiment: cells. Type of series: cell-based. The note with it: Homo sapiens, SK-ES1, 96 h, read-out: IC50 values.
The subject of another series is Capan-1. As to the kind of experiment: cells. The format is cell-based. The note with it: Homo sapiens, CAPAN-1, 96 h, read-out: IC50 values.
Another series concerns HEL 92.1.7. The series can be described thus: cells. The format is cell-based. The settings on record: Homo sapiens, HEL 92.1.7, 96 h, read-out: IC50 values.
A short description of another series: physchem. The note with it: buffer, pH 7.2.
Another series deals with U-937. The series can be described thus: cells. The format is cell-based. The settings on record: Homo sapiens, U-937, 96 h, read-out: IC50 values.
The nature of series [1]: in vitro. The note with it: mouse, plasma.
The next series deals with LnCap clone FGC. The series can be described thus: cells. Type of series: cell-based. The note with it: Homo sapiens, 96 h, read-out: IC50 values.
The next series has as its system HT-29. The series can be described thus: cells. The format is cell-based. The settings on record: Homo sapiens, HT-29, 96 h, read-out: IC50 values.
The nature of series [2]: in vitro. The note with it: human, plasma.
A further series relates to MG-63. The series can be described thus: cells. The settings on record: Homo sapiens, MG-63, 96 h, read-out: IC50 values. Type of series: cell-based.
For another series, the system named is SK-Mel3. The series can be described thus: cells. The settings on record: Homo sapiens, SK-MEL3, 96 h, read-out: IC50 values. The format is cell-based.

The term IC50 denotes the concentration that inhibits the measured activity by half. The term half-life denotes the time needed for the level to fall by half in the phase considered. Regarding `Cl.Cn1c(CCCC(=O)O)nc2ccc(N(CCCl)CCCl)cc21` [iso-bendamustine-HCl, 4-{6-[bis(2-chloroethyl)amino]-1-methyl-1H-benzimidazol-2-yl)butanoic acid hydrochloride], the IC50 in the series on Jurkat is 59.5 ± 4 µM; with NCl-H460, > 100 µM; with SK-ES1, 9.6 ± 1.5 µM; in the series on Capan-1, 24.6 ± 4.4 µM; in the series on HEL 92.1.7, 76.5 ± 4.5 µM; with U-937, 59.8 ± 5.2 µM. Further, the concentration for half-maximal inhibition (IC50) in the series on LnCap clone FGC is 18.9 ± 2.6 µM; in the series with HT-29, > 100 µM; with MG-63, 50.1 ± 5.5 µM; in the series with SK-Mel3, > 100 µM. For the same compound, the half-life in “physchem” came to 11.6 ± 1.9 min; in the series “in vitro [1]”, 60.5 ± 2.7 min; in “in vitro [2]” it was 83.8 ± 9.3 min.
On to `Cn1c(CCCC(=O)O)nc2cc(N(CCCl)CCCl)ccc21` [bendamustine-HCl, 4-{5-[bis(2-chloroethyl)amino]-1-methyl-1H-benzimidazol-2-yl}butanoic acid, reference compound], for which the IC50 stood at 42.6 ± 5.6 µM in the series with Jurkat; 89.5 ± 10.4 µM in the series on NCl-H460; 11 ± 1.6 µM in the series on SK-ES1; 25.2 ± 5.4 µM with Capan-1; 84 ± 7.7 µM in the series on HEL 92.1.7; 91.9 ± 16.4 µM in the series on U-937. Moreover, the IC50 is 71.6 ± 5.4 µM in the series with LnCap clone FGC, > 100 µM in the series on HT-29, 55 ± 3.3 µM in the series with MG-63 and > 100 µM with SK-Mel3. For the same compound, the results for the half-life in “physchem”, in “in vitro [1]” and in the series “in vitro [2]” were 10.8 ± 2.9 min, 35 ± 2.2 min and 131 ± 10.2 min, respectively.
`CCOC(=O)CCCc1nc2ccc(N(CCCl)CCCl)cc2n1C` [iso-bendamustine ethyl ester, ethyl 4-{6-[bis(2-chloroethyl)amino]-1-methyl-1H-benzimidazol-2-yl}butanoate]: the IC50 with Jurkat turned out to be 3.9 ± 0.3 µM; in the series on NCl-H460, 5.4 ± 0.2 µM; in the series on SK-ES1, 0.24 ± 0.04 µM; in the series with Capan-1 it was 0.91 ± 0.15 µM; in the series with HEL 92.1.7, 3.5 ± 0.3 µM; in the series with U-937 it was 1.6 ± 0.03 µM. Further, the half-maximal inhibitory concentration (IC50) in the series with LnCap clone FGC was 1.5 ± 0.34 µM; in the series on HT-29, 11 ± 1.1 µM; in the series on MG-63 it was 1.9 ± 0.1 µM; in the series with SK-Mel3, 11.7 ± 2.5 µM. The half-life is 15.3 ± 3.8 min in the series “physchem”, < 2 min in the series “in vitro [1]” and 141 ± 6.3 min in “in vitro [2]”.
